Experimental findings from patent publication US8772480B2, “Inhibitors of PI3 kinase and/or mTOR” (priority 2009, dated 2014) are described below.

Read-outs that look alike come from different tables or passages of the source. Bounds are passed on as bounds.

Test [1] has as its target PI3Kα (Homo sapiens (Human), UniProt P42336). The following applies: read-out: PI3Kα AlphaScreen ® Ki. Background: Alpha assays give light when donor and acceptor beads are brought close together.
For test [2], the system named is phosphorylation of Akt at Serine 473 in U87 MG cells. The test can be described thus: cells. The following applies: Homo sapiens, U-87 MG, 2 h.
The mark [3] stands for this setting: read-out: U87Cell IC50, pAkt (Ser 473), U87 MG cells, two hours with compound.

Chain of PI3Kα (P42336 whole entry): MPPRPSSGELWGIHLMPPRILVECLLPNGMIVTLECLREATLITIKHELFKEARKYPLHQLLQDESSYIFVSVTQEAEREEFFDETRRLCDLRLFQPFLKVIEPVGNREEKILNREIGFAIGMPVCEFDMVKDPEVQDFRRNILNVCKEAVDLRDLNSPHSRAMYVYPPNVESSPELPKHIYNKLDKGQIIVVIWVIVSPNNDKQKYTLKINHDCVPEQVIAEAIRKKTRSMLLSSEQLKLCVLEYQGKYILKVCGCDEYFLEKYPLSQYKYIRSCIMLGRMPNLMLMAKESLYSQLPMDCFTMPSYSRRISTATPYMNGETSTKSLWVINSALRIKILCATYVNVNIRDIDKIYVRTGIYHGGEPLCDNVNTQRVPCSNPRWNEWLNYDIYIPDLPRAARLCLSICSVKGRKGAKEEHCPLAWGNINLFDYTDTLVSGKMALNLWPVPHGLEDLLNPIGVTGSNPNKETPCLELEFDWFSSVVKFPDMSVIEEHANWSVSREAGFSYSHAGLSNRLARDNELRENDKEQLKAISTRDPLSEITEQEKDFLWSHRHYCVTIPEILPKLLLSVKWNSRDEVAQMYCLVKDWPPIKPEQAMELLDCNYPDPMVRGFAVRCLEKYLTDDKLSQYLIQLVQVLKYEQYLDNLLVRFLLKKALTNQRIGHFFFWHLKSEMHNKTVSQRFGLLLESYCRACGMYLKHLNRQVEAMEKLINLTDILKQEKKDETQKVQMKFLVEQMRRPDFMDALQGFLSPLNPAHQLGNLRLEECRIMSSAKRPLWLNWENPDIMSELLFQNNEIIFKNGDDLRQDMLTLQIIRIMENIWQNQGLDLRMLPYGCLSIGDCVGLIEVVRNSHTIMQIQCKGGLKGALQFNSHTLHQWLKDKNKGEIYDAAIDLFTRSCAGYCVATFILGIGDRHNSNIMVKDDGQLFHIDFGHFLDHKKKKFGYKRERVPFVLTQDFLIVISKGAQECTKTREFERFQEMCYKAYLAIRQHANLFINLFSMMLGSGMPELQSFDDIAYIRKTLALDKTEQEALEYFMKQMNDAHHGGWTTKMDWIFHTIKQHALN
Chain of PI3Kα (P27986 whole entry partner): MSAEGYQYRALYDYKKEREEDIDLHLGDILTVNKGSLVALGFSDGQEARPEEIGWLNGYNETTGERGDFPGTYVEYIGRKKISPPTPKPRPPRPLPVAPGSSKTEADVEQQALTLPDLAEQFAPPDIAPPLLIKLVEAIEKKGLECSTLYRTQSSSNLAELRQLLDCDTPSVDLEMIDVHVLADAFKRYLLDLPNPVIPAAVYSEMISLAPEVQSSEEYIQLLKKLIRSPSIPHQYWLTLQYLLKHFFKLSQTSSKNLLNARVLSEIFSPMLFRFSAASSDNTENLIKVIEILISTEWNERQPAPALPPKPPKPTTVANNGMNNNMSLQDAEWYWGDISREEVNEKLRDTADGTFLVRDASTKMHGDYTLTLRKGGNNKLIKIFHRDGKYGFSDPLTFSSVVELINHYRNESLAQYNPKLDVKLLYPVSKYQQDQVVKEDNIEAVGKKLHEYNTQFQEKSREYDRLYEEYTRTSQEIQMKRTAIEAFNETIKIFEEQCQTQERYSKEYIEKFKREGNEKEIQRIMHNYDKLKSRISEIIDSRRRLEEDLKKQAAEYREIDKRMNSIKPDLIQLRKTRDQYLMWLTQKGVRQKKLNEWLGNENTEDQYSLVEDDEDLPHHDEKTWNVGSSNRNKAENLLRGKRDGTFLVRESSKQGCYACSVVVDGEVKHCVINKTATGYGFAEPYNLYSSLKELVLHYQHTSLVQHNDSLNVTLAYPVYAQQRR

As a reminder, the Ki is a dissociation constant, usually derived from enzyme kinetics or from competition with a known ligand. For orientation: IC50 means the concentration that gives 50% inhibition. `COc1ncc(Nc2ncc([C@@H](C)N3CCN(S(C)(=O)=O)CC3)cc2-c2nc(C)nc(N)n2)cc1C(C)C` [Example 302, (R)-4-(2-(5-Isopropyl-6-Methoxypyridin-3-Ylamino)-5-(1-(4-(Methylsulfonyl)Piperazin-1-yl)Ethyl)Pyridin-3-yl)-6-Methyl-1,3,5-Triazin-2-Amine]: in test [1], the inhibition constant (Ki) was determined as 24 nM. For the same compound, in test [2] (setting [3]), the IC50 was 203 nM.

For `COc1ccc(Nc2ncc(CN3CCN(S(C)(=O)=O)CC3)cc2-c2cc(N)nc(C)n2)cn1` [Example 178, 6-(2-(6-Methoxypyridin-3-Ylamino)-5-((4-(Methylsulfonyl)Piperazin-1-yl)Methyl)Pyridin-3-yl)-2-Methylpyrimidin-4-Amine], the Ki in test [1] is 6 nM. The IC50 in test [2] (setting [3]) was 50 nM.

On to `Cc1nc(N)nc(-c2cccnc2Nc2ccc(NC(=O)NC(C)C)nc2)n1` [Example 192, 1-(5-(3-(4-Amino-6-Methyl-1,3,5-Triazin-2-yl)Pyridin-2-Ylamino)Pyridin-2-yl)-3-Isopropylurea], for which, in test [1], the inhibition constant Ki stood at 691 nM. In addition, in test [2] (setting [3]), the half-inhibitory concentration (IC50) was 941 nM.

For the compound `COc1ccc(Nc2ncc(C(C)(C)N)cc2-c2nc(C)nc(N)n2)cn1` [Example 277, 4-(5-(2-Aminopropan-2-yl)-2-(6-Methoxypyridin-3-Ylamino)Pyridin-3-yl)-6-Methyl-1,3,5-Triazin-2-Amine], the Ki in test [1] amounted to 56 nM. The IC50 in test [2] (setting [3]) stood at 170 nM.

Regarding `Cc1nc(N)nc(-c2cc(F)cnc2Nc2cncc(F)c2)n1` [Example 186, 4-(5-Fluoro-2-(5-Fluoropyridin-3-Ylamino)Pyridin-3-yl)-6-Methyl-1,3,5-Triazin-2-Amine], the Ki in test [1] was 851 nM. Further, the IC50 in test [2] (setting [3]) was above 10000 nM.

For the compound `COc1ncc(Nc2ncc(CN3CCN(S(C)(=O)=O)C[C@@H]3C)cc2-c2nc(C)nc(N)n2)cn1` [Example 319, (S)-4-(2-(2-Methoxypyrimidin-5-Ylamino)-5-((2-Methyl-4-(Methylsulfonyl)Piperazin-1-yl)Methyl)Pyridin-3-yl)-6-Methyl-1,3,5-Triazin-2-Amine], the Ki in test [1] was determined as 21 nM. Also, in test [2] (setting [3]), the IC50 was 52 nM.

Take `COCCNC(=O)c1cnc(Nc2ccc(OC)nc2)c(-c2nc(C)nc(N)n2)c1` [Example 153, 5-(4-Amino-6-Methyl-1,3,5-Triazin-2-yl)-N-(2-Methoxyethyl)-6-((6-Methoxy-3-Pyridinyl)Amino)-3-Pyridinecarboxamide]: the Ki in test [1] was found to be 21 nM. The IC50 in test [2] (setting [3]) was 110 nM.

Take `COc1ncc(Nc2ncc(C(C)N3CCN(C(=O)N(C)C)CC3)cc2-c2nc(C)nc(N)n2)cc1F` (centres unmarked) [Example 294, 4-(1-(5-(4-Amino-6-Methyl-1,3,5-Triazin-2-yl)-6-(5-Fluoro-6-Methoxypyridin-3-Ylamino)Pyridin-3-yl)Ethyl)-N,N-Dimethylpiperazine-1-Carboxamide]: the Ki in test [1] came out at 12 nM. For the same compound, the IC50 in test [2] (setting [3]) is 90 nM.

Take `COc1ccc(Nc2ncc(CNc3ccccc3)cc2-c2nc(C)nc3[nH]cnc23)cn1` [Example 83, N-(6-methoxypyridin-3-yl)-3-(2-methyl-9H-purin-6-yl)-5-((phenylamino)methyl)pyridin-2-amine]: in test [1], the Ki turned out to be 45 nM. In test [2] (setting [3]), the concentration for half-maximal inhibition (IC50) amounted to 700 nM.

As to `Cc1ccc2cc(Nc3ncccc3-c3nc(C)nc(N)n3)ccc2n1` [Example 171, N-(3-(4-Amino-6-Methyl-1,3,5-Triazin-2-yl)Pyridin-2-yl)-2-Methylquinolin-6-Amine], the inhibition constant Ki in test [1] was 611 nM. Moreover, in test [2] (setting [3]), the half-inhibitory concentration (IC50) is above 10000 nM.

For the compound `COc1ccc(Nc2nc(-c3cccnc3)ccc2-c2nc(C)nc(N)n2)cn1` [Example 254, 5-(4-Amino-6-Methyl-1,3,5-Triazin-2-yl)-N-(6-Methoxypyridin-3-yl)-2,3′-Bipyridin-6-Amine], in test [1], the Ki was 67 nM. Further, the IC50 in test [2] (setting [3]) came to 583 nM.

Take `COc1ccc(Nc2ncc(C(C)c3ccc(S(C)(=O)=O)cc3)cc2-c2nc(C)nc(N)n2)cn1` (centres unmarked) [Example 149, 4-(2-(6-Methoxypyridin-3-Ylamino)-5-(1-(4-(Methylsulfonyl)Phenyl)Ethyl)Pyridin-3-yl)-6-Methyl-1,3,5-Triazin-2-Amine]: in test [1], the Ki came to 5 nM. In test [2] (setting [3]), the IC50 turned out to be 53 nM.

For `COc1ccc(Nc2ncc(CN3CC[S+]([O-])CC3)cc2-c2nc(C)nc(N)n2)cn1` [Example 202, 4-(2-(6-Methoxypyridin-3-Ylamino)-5-(1-Sulfoxidemorpholinomethyl)Pyridin-3-yl)-6-Methyl-1,3,5-Triazin-2-Amine], in test [1], the inhibition constant (Ki) came out at 147 nM. In addition, in test [2] (setting [3]), the IC50 was found to be 124 nM.

As to `COc1ccc(Nc2ncc(NCc3ccccc3)cc2-c2nc(C)nc3[nH]cnc23)cn1` [Example 91, N5-benzyl-N2-(6-methoxypyridin-3-yl)-3-(2-methyl-9H-purin-6-yl)pyridine-2,5-diamine], the inhibition constant (Ki) in test [1] worked out at 57 nM. Also, in test [2] (setting [3]), the IC50 was determined as 378 nM.

As to `Cc1nc(N)nc(-c2cc([C@@H](C)N3CCN(S(C)(=O)=O)C[C@@H]3C)cnc2Nc2ccc(Cl)nc2)n1` [Example 363, 4-(2-(6-Chloropyridin-3-Ylamino)-5-((R)-1-((S)-2-Methyl-4-(Methylsulfonyl)Piperazin-1-yl)Ethyl)Pyridin-3-yl)-6-Methyl-1,3,5-Triazin-2-Amine], the Ki in test [1] came out at 15 nM. The half-inhibitory concentration (IC50) in test [2] (setting [3]) came out at 31 nM.

Regarding `COc1ccc(Nc2nc(N3CCOCC3)ncc2-c2nc(C)nc(N)n2)cn1` [Example 120, 4-(4-(6-methoxypyridin-3-ylamino)-2-morpholinopyrimidin-5-yl)-6-methyl-1,3,5-triazin-2-amine], in test [1], the Ki is 97 nM. The IC50 in test [2] (setting [3]) stood at 148 nM.

`COc1ccc(Nc2ncc(C(C)N3CC(S(C)(=O)=O)C3)cc2-c2nc(C)nc(N)n2)cn1` (centres unmarked) [Example 308, 4-(2-(6-methoxypyridin-3-ylamino)-5-(1-(3-(methylsulfonyl)azetidin-1-yl)ethyl)pyridin-3-yl)-6-methyl-1,3,5-triazin-2-amine 2,2,2-trifluoroacetate]: the inhibitory constant (Ki) in test [1] was determined as 19 nM. Moreover, the IC50 in test [2] (read-out: U87Cell IC50) turned out to be 60 nM.

With `COc1ccc(Nc2ncc(CNc3cccnn3)cc2-c2nc(C)nc3[nH]cnc23)cn1` [Example 80, N-((6-(6-methoxypyridin-3-ylamino)-5-(2-methyl-9H-purin-6-yl)pyridin-3-yl)methyl)pyridazin-3-amine], the Ki in test [1] came out at 33 nM. For the same compound, the half-maximal inhibitory concentration (IC50) in test [2] (setting [3]) was found to be 305 nM.

As to `C=Cc1cnc(Nc2cnc(Cl)c(NS(C)(=O)=O)c2)c(-c2cc(N)nc(C)n2)c1` [Example 380, N-(5-(3-(6-Amino-2-Methylpyrimidin-4-yl)-5-Vinylpyridin-2-Ylamino)-2-Chloropyridin-3-yl)Methanesulfonamide], in test [1], the inhibitory constant (Ki) stood at 59 nM. In addition, in test [2] (setting [3]), the IC50 was 16 nM.

Consider `COc1ncc(Nc2nc(-c3ccncc3)ccc2-c2nc(C)nc(N)n2)cc1F` [Example 175, 5-(4-Amino-6-Methyl-1,3,5-Triazin-2-yl)-N-(5-Fluoro-6-Methoxypyridin-3-yl)-2,4′-Bipyridin-6-Amine], for which, in test [1], the Ki stood at 63 nM. The IC50 in test [2] (setting [3]) was above 10000 nM.

`CC(=O)Nc1ccc(Nc2ncc(CN3CCN(S(C)(=O)=O)CC3)cc2-c2nc(C)nc(N)n2)cc1F` [Example 267, N-(4-(3-(4-Amino-6-Methyl-1,3,5-Triazin-2-yl)-5-((4-(Methylsulfonyl)Piperazin-1-yl)Methyl)Pyridin-2-Ylamino)-2-Fluorophenyl)Acetamide]: the Ki in test [1] is 369 nM. Besides, the IC50 in test [2] (setting [3]) is 486 nM.

Take `COc1ccc(Nc2ncc(CNc3ccccn3)cc2-c2nc(C)nc3[nH]cnc23)cn1` [Example 82, N-(6-methoxypyridin-3-yl)-3-(2-methyl-9H-purin-6-yl)-5-((pyridin-2-ylamino)methyl)pyridin-2-amine]: the Ki in test [1] was determined as 25 nM. In test [2] (setting [3]), the concentration for half-maximal inhibition (IC50) worked out at 226 nM.

For `COc1ncc(Nc2ncc(C(C)(C)C(=O)O)cc2-c2nc(C)nc(N)n2)cc1F` [Example 346, 2-(5-(4-Amino-6-Methyl-1,3,5-Triazin-2-yl)-6-(5-Fluoro-6-Methoxypyridin-3-Ylamino)Pyridin-3-yl)-2-Methylpropanoic Acid], the inhibition constant (Ki) in test [1] was found to be 377 nM. Besides, the concentration for half-maximal inhibition (IC50) in test [2] (setting [3]) was above 10000 nM.

On to `CCC(N)(CC)c1cnc(Nc2cnc(OC)c(F)c2)c(-c2nc(C)nc(N)n2)c1` [Example 301, 4-(5-(3-Aminopentan-3-yl)-2-(5-Fluoro-6-Methoxypyridin-3-Ylamino)Pyridin-3-yl)-6-Methyl-1,3,5-Triazin-2-Amine], for which, in test [1], the Ki stood at 110 nM. Also, the 50% inhibitory concentration (IC50) in test [2] (setting [3]) was found to be 70 nM.

For `COc1ccc(Nc2ncc(-c3cn[nH]c3)cc2-c2nc(C)nc(N)n2)cn1` [Example 250, 4-(2-(6-Methoxypyridin-3-Ylamino)-5-(1H-Pyrazol-4-yl)Pyridin-3-yl)-6-Methyl-1,3,5-Triazin-2-Amine], the inhibitory constant (Ki) in test [1] was 11 nM. In addition, the IC50 in test [2] (setting [3]) was found to be 46 nM.

As to `COc1ccc(Nc2ncc(CN3CC(NS(C)(=O)=O)C3)cc2-c2nc(C)nc(N)n2)cn1` [Example 232, N-(1-((5-(4-Amino-6-Methyl-1,3,5-Triazin-2-yl)-6-(6-Methoxypyridin-3-Ylamino)Pyridin-3-yl)Methyl)Azetidin-3-yl)Methanesulfonamide], the inhibitory constant (Ki) in test [1] came out at 39 nM. Besides, in test [2] (setting [3]), the IC50 was determined as 78 nM.

For the compound `Cc1nc(N)nc(-c2cc(CN3CCN(S(C)(=O)=O)CC3)cnc2Nc2ccc3ncsc3c2)n1` [Example 241, N-(3-(4-Amino-6-Methyl-1,3,5-Triazin-2-yl)-5-((4-(Methylsulfonyl)Piperazin-1-yl)Methyl)Pyridin-2-yl)Benzo[D]Thiazol-6-Amine], the inhibition constant (Ki) in test [1] was found to be 43 nM. Further, in test [2] (setting [3]), the 50% inhibitory concentration (IC50) is 87 nM.

On to `COc1ccc(Nc2ncc(N3CCN(S(C)(=O)=O)CC3)cc2-c2nc(C)nc3[nH]cnc23)cn1` [Example 99, N-(6-Methoxypyridin-3-yl)-3-(2-Methyl-9H-Purin-6-yl)-5-(4-(Methylsulfonyl)Piperazin-1-yl)Pyridin-2-Amine], for which the Ki in test [1] amounted to 23 nM. Besides, in test [2] (setting [3]), the IC50 amounted to 204 nM.
